In one series the test system is Sprague-Dawley rats, STZ. The series can be described thus: Rat model of diabetic nephropathy (STZ, high fat diet). The series is classed as in vivo. As to conditions: XG-102 1, 2, 4 mg/kg iv weekly; Losartan 25 mg/kg po daily; 9 weeks. From the text:
Losartan has been used as a positive control. Seventy-four male Sprague-Dawley rats (200-250 g; including 4 spare animals) from Charles River (Margate, Kent) were used. […] The diet has been purchased from Research Diets, New Jersey, USA. […] Animals have been housed in pairs throughout the study. […] During the third week of habituation, a blood sample has been taken from the lateral tail vein in the freely fed state using a hand-held glucose meter (One Touch Ultra 2). Blood sampling began at approximately 09:00. […] About 40 animals have been assigned to Cohort A and the remaining 30 to Cohort B, balanced as far as possible for body weight, plasma glucose and food and water intake. […] For the 7-day period post STZ dose, animals have been weighed daily and food and water intake determined twice weekly. For the remaining study duration, animals have been weighed and water and food intake assessed twice weekly (always on the day of intravenous dosing and typically on water refill day(s)). […] Animals have been weighed prior to dosing (this weight was recorded). Food and water have been recorded on the same days as the intravenous groups (A-E) only. […] Creatinine, glucose, urea, total protein and electrolytes (Na, K, Cl and Ca) have been determined on urine samples using a COBAS […] and associated reagents (n=2 for all urine analyses). […] Food consumed and water drunk has also been calculated. […]

The subject of series [1] is primary embryonic cultures and differentiated PC12 cells. As to conditions: after trophic withdrawal; cited from earlier work.
Series [2] has as its system gerbil, transient global ischemia. Conditions: Carboni et al. 2004; cited from earlier work.

For `CCCCc1nc(Cl)c(CO)n1Cc1ccc(-c2ccccc2-c2nn[nH]n2)cc1` [Losartan], the body weight result in the series on Sprague-Dawley rats, STZ is “has been significantly lower”. On to `CCSCc1ccc2c(c1)c1c3c(c4c5cc(CSCC)ccc5n5c4c1n2[C@H]1C[C@](O)(C(=O)OC)[C@]5(C)O1)CNC3=O` [CEP-1347], for which the neuronal survival entry in series [1] was “promotes neuronal survival at dosages that inhibit activation of the c-Jun amino-terminal kinases (JNKs)”. `N#CC(c1ccnc(NCCc2cccnc2)n1)c1nc2ccccc2s1` (stereo not drawn) [AS601245]: the “delayed loss of hippocampal CA1 neurons” value in series [2] was “provided significant protection against the delayed loss of hippocampal CA1 neurons”.
